Some test systems named below: A498 renal; ACHN renal; HCT-116 colon; HL-60(TB) leukemia; KM12 colon; M14 melanoma; MALME-3M melanoma; NCI-H460 lung; OVCAR-3 ovarian; OVCAR-4 ovarian; OVCAR-8 ovarian; RPMI-8226 leukemia; SF-268 CNS; SK-MEL-2 melanoma; SK-MEL-28 melanoma; SK-MEL-5 melanoma; SR leukemia; TK-10 renal; MOLT-4 leukemia; SNB-19 CNS.
Common to all, as to assay: NCI-60 cell line screen, 48 h

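All cell lines were grown in 96-well plates and treated with compound for 48 hours. TGI: concentration producing complete growth inhibition.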

On to `Nc1ccccc1Sc1ccc(Cl)cc1`, for which the TGI is above 100 µM in the experiment with A498 renal; 99.2 µM in the experiment with ACHN renal; above 100 µM in the experiment on HCT-116 colon; 53.3 µM in the experiment with HL-60(TB) leukemia; above 100 µM in the experiment with KM12 colon; above 100 µM in the experiment on M14 melanoma. The TGI in the experiment on MALME-3M melanoma is above 100 µM; in the experiment with NCI-H460 lung, 68.9 µM; with OVCAR-3 ovarian it was 72.1 µM; in the experiment with OVCAR-4 ovarian it was above 100 µM; with OVCAR-8 ovarian, above 100 µM; with RPMI-8226 leukemia, 67.9 µM. Also, the TGI with SF-268 CNS was above 100 µM; in the experiment with SK-MEL-2 melanoma it was 87.8 µM; in the experiment on SK-MEL-28 melanoma, 64 µM; with SK-MEL-5 melanoma it was 32 µM; with SR leukemia it was 57.8 µM; in the experiment on TK-10 renal, above 100 µM.

Take `CCCCN(CCCC)c1ccc(N=Nc2ccc(S(=O)(=O)O)cc2)cc1`: the TGI is above 100 µM in the experiment with A498 renal; above 100 µM with ACHN renal; 29.4 µM with HCT-116 colon; 53.1 µM in the experiment with HL-60(TB) leukemia; 32.8 µM in the experiment on KM12 colon; above 100 µM in the experiment with M14 melanoma. In addition, the TGI in the experiment with MOLT-4 leukemia was 35.2 µM; with NCI-H460 lung, above 100 µM; with OVCAR-3 ovarian it was above 100 µM; in the experiment with OVCAR-4 ovarian, 74.7 µM; in the experiment on OVCAR-8 ovarian, 44.9 µM; in the experiment on RPMI-8226 leukemia, 53.5 µM. The TGI was above 100 µM in the experiment on SF-268 CNS; above 100 µM in the experiment with SK-MEL-2 melanoma; above 100 µM with SK-MEL-28 melanoma; 43.4 µM in the experiment with SK-MEL-5 melanoma; above 100 µM in the experiment on SNB-19 CNS; above 100 µM in the experiment on TK-10 renal.

For `C/C(=C1/N=C(c2cc([N+](=O)[O-])ccc2Cl)N(C2=CC=C(Cl)CC2)C1=O)c1cc2ccccc2oc1=O`, the TGI with A498 renal, in the experiment on ACHN renal, in the experiment on HCT-116 colon, in the experiment with HL-60(TB) leukemia, in the experiment with KM12 colon and in the experiment with M14 melanoma was above 100 µM throughout. Further, the TGI in the experiment on MALME-3M melanoma, in the experiment on MOLT-4 leukemia, in the experiment with NCI-H460 lung, in the experiment on OVCAR-3 ovarian, with OVCAR-4 ovarian and with OVCAR-8 ovarian was above 100 µM in each case. The TGI in the experiment with RPMI-8226 leukemia, with SF-268 CNS, in the experiment on SK-MEL-28 melanoma, with SK-MEL-5 melanoma, in the experiment with SNB-19 CNS and with SR leukemia was above 100 µM throughout.

As to `Cc1cc(S(N)(=O)=O)c(S/C(=N\Nc2ccc([N+](=O)[O-])cc2)c2ccc(Cl)cc2)cc1Cl`, the TGI was 21.8 µM with A498 renal; 10.4 µM in the experiment with ACHN renal; above 100 µM in the experiment on HCT-116 colon; above 100 µM in the experiment on HL-60(TB) leukemia; 4.15 µM in the experiment with KM12 colon; above 100 µM in the experiment with M14 melanoma. In addition, the TGI with MALME-3M melanoma was 4.31 µM; with MOLT-4 leukemia, above 100 µM; in the experiment with NCI-H460 lung, 5.3 µM; with OVCAR-3 ovarian, 3.85 µM; with OVCAR-4 ovarian, 4.48 µM; in the experiment with RPMI-8226 leukemia it was 28.3 µM. Moreover, the TGI with SF-268 CNS amounted to 6.58 µM; in the experiment with SK-MEL-2 melanoma it was 9.58 µM; in the experiment on SK-MEL-28 melanoma it was 4.91 µM; with SK-MEL-5 melanoma, 33.3 µM; in the experiment with SNB-19 CNS, 27 µM; in the experiment with SR leukemia, 9.01 µM. Further, in the experiment on TK-10 renal, the TGI was 3.54 µM.

On to `CC1=CC[C@H](C)C(C)(C)C1/C=C/C(C)=C/CC[C@@]1(CO)[C@H](CCCO)/C(=C(/C)C=O)CC[C@]1(C)O` (stereo partly drawn), for which the TGI with ACHN renal is 16.6 µM; in the experiment on HL-60(TB) leukemia, 7.79 µM; in the experiment with KM12 colon it was 9.63 µM; in the experiment on M14 melanoma it was 12.3 µM; with MALME-3M melanoma it was 16.9 µM; in the experiment with MOLT-4 leukemia, 20.5 µM. The TGI in the experiment with NCI-H460 lung came to 13.5 µM; in the experiment with OVCAR-8 ovarian, 32.9 µM; in the experiment with SF-268 CNS, 25.1 µM; in the experiment with SK-MEL-2 melanoma, 29.5 µM; in the experiment on SK-MEL-28 melanoma, 23.7 µM; in the experiment with SK-MEL-5 melanoma, 4.26 µM. The results for the TGI in the experiment with SNB-19 CNS, in the experiment on SR leukemia and in the experiment with TK-10 renal were 21.4 µM, 24.3 µM and 15.3 µM, respectively.

Turning to `COc1cccc(NC(=O)N/C(=C/c2ccc(N(CCC#N)CCC#N)cc2)NC(=O)c2cc([N+](=O)[O-])ccc2Cl)c1`, the TGI in the experiment on ACHN renal, with HCT-116 colon, with KM12 colon, in the experiment on MOLT-4 leukemia, with OVCAR-3 ovarian and in the experiment on OVCAR-4 ovarian was above 100 µM in each case. For the same compound, the TGI with OVCAR-8 ovarian, in the experiment with RPMI-8226 leukemia, with SF-268 CNS, with SK-MEL-2 melanoma, in the experiment on SK-MEL-28 melanoma and in the experiment on SK-MEL-5 melanoma was above 100 µM throughout. In addition, the TGI in the experiment on SNB-19 CNS, in the experiment on SR leukemia and with TK-10 renal was above 100 µM throughout.

As for `CC(=O)/C=C/c1c[nH]c(=O)[nH]c1=O`, the TGI with A498 renal is 566 µM; with HCT-116 colon it was 388 µM; with HL-60(TB) leukemia it was 528 µM; with KM12 colon it was 439 µM; with MALME-3M melanoma, 444 µM; in the experiment with MOLT-4 leukemia it was 783 µM. For the same compound, the TGI in the experiment on NCI-H460 lung was determined as 613 µM; with OVCAR-3 ovarian, 608 µM; with OVCAR-4 ovarian, 883 µM; in the experiment with OVCAR-8 ovarian it was 873 µM; with RPMI-8226 leukemia, 679 µM; with SF-268 CNS, 720 µM. Besides, the TGI stood at 444 µM with SK-MEL-2 melanoma, 504 µM with SK-MEL-28 melanoma, 574 µM with SK-MEL-5 melanoma and 903 µM in the experiment on SNB-19 CNS.

On to `O=C(COC(=O)c1ccccc1)c1ccc(Br)cc1`, for which the TGI was 29.5 µM in the experiment with A498 renal; 65.9 µM in the experiment with ACHN renal; 30.2 µM in the experiment with HCT-116 colon; 48.2 µM in the experiment on HL-60(TB) leukemia; 37 µM in the experiment on KM12 colon; 31 µM in the experiment on M14 melanoma. Besides, the TGI in the experiment on MALME-3M melanoma was 29.4 µM; in the experiment on MOLT-4 leukemia it was 15 µM; with NCI-H460 lung, 37.2 µM; with OVCAR-3 ovarian, above 100 µM; with OVCAR-8 ovarian it was above 100 µM; in the experiment on RPMI-8226 leukemia it was 16.9 µM. The TGI turned out to be 34.4 µM with SF-268 CNS; 28.2 µM in the experiment on SK-MEL-2 melanoma; 32.1 µM in the experiment on SK-MEL-28 melanoma; 27.5 µM with SK-MEL-5 melanoma; 30.5 µM with SNB-19 CNS; 7.11 µM in the experiment on SR leukemia. For the same compound, in the experiment with TK-10 renal, the TGI is 10.8 µM.

The record behind these values is PubChem BioAssay (NCI).
